According to US12466820B2, “Amino quinazoline derivatives as P2X3 inhibitors” (CHIESI FARMACEUTICI S.p.A., priority 2019, dated 2025):
pIC50: −log10 of the molar value.

Columns and labels:
h P2X3 = target: T1, h P2X3 (Homo sapiens, UniProt P56373); assay: In vitro electrophysiology assay for P2X3 (automated whole-cell patch clamp, Sophion Qube); type: cell-based; settings: range of activity
T1 sequence (P56373 1-397): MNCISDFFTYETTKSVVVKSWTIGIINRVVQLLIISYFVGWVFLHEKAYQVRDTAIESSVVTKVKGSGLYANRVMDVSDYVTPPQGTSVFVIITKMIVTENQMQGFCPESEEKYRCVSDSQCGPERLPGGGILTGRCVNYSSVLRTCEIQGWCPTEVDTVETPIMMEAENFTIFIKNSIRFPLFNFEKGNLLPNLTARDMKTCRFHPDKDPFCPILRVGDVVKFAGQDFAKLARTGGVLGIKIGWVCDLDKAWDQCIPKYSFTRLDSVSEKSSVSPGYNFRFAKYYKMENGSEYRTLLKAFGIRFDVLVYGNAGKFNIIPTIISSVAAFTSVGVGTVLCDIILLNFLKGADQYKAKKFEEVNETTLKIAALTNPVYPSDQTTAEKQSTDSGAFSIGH
How it was run: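 Whole-cell automated patch clamp at room temperature, cells held at −60 mV; after two 800 nM α,β-MeATP baseline responses, antagonist preincubated 10 min then co-applied with 800 nM α,β-MeATP. Inhibition of peak current vs second agonist response; IC50 from 10-concentration curves, one concentration per cell.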

h P2X2/3 = target: T2, h P2X2/3 (Homo sapiens, UniProt P56373+Q9UBL9); assay: In vitro electrophysiology assay for P2X2/3 (same protocol, 10 μM ATP as agonist); type: cell-based; settings: Table 7, range of activity
T2 sequence (P56373 1-397): T1 sequence (P56373 1-397)
T2 sequence (Q9UBL9 1-471): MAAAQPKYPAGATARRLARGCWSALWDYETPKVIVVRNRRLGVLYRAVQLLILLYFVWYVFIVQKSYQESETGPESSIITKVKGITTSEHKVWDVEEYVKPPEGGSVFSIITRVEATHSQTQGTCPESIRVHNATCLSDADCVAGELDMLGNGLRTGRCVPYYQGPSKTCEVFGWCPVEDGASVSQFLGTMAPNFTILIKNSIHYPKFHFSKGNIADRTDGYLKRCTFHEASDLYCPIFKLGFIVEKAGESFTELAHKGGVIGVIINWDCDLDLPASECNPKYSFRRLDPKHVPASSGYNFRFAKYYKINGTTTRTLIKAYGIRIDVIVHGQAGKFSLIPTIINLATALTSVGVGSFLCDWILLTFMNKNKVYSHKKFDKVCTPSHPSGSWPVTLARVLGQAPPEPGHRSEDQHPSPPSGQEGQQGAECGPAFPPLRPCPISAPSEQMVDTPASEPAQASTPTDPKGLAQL
Protocol: Cells expressing P2X3 receptors were grown according to standard practice and maintained at 37° C. in a 5% humidified CO2 atmosphere. The cells were seeded into T175 flask 2 days prior to the day of the assay and dissociated from the flasks using TrypLE when grown to confluence of 80-90%. The dissociated cells were resuspended in serum free media at a cell density of 3×10^6 cells/ml and loaded onto the Sophion Qube automated patch-clamp system. The extracellular assay buffer contained 145 mM NaCl, 4 mM KCl, 2 mM CaCl2), 1 mM MgCl2, 10 mM HEPES, and 10 mM glucose at pH 7.4. The intracellular assay solution contained 140 mM CsF, 10 mM NaCl, 10 mM EGTA, 10 mM HEPES at pH 7.2. Agonist stock solutions were prepared in H2O and diluted in bath solution prior to use. All antagonists were prepared as 10 mM stock solutions in DMSO and diluted in bath solution prior to use. All experiments were performed under the whole-cell patch clamp configuration at room temperature with 384 individual cells being voltage clamped at −60 mV simultaneously on the Sophion Qube instrument. Two baseline responses were established with the application of α,β-MeATP (800 nM), with the subsequent agonist applications being washed out using extracellular assay buffer containing 0.5 U/ml apyrase. Following the second agonist application, antagonist was incubated in the absence of α,β-MeATP for 10 minutes. After antagonist preincubation, 800 nM α,β-MeATP and antagonist were co-administered to determine the inhibitory effect of the antagonist. One concentration of an antagonist was assessed against a single cell, with different concentrations of the antagonist applied to other cells on the 384 recording substrate. The control P2X3 current amplitude was taken from the peak current amplitude from the second agonist response prior to preincubation with antagonist. The peak P2X3 current amplitude in the presence of antagonist was used to calculate the inhibitory effect at each concentration of the antagonist according to the following equation: […]
Concentration-response curves were constructed from ten different concentrations with each concentration of antagonist tested on at least two individual cells. The concentration of the antagonist to inhibit P2X3 current by 50% (IC50) was determined by fitting the data with the following equation: […]
Where ‘a’ is minimum response, ‘b’ is maximum response, ‘c’ is IC50 and ‘d’ is Hill slope.
Representative compound of the present invention have been also tested for P2X2/3 receptor.
The same assay protocol was used for the P2X2/3 assay as the P2X3 assay with two modifications: 1) 10 μM ATP was used as the agonist; and 2) the mean current amplitude was measured seven seconds after the application of agonist.

[1] = Table 6, inhibition of P2X3 current, agonist α,β-MeATP (800 nM)

Row | pIC50 (h P2X3; [1]) | pIC50 (h P2X3; Table 7) | pIC50 (h P2X2/3) | SMILES
1 | > 6.50 | > 6.50 | 5.50 to 6.50 | COc1cc(-c2ncc(C)s2)cc2c(N[C@H](C)c3ccc(C)nn3)ncnc12 [Example 5, (R)-8-methoxy-N-(1-(6-methylpyridazin-3-yl)ethyl)-6-(5-methylthiazol-2-yl)quinazolin-4-amine]
2 | > 6.50 | > 6.50 | 5.50 to 6.50 | COc1cc(-c2ncc(C)s2)cc2c(NCc3cc(C)no3)ncnc12 [Example 111, 8-methoxy-N-[(3-methylisoxazol-5-yl)methyl]-6-(5-methylthiazol-2-yl)quinazolin-4-amine]
3 | > 6.50 | > 6.50 | 4.50 to 5.50 | COc1cc(-c2ccc(F)cn2)cc2c(NCc3cnc(C(F)(F)F)nc3)ncnc12 [Example 146, 6-(5-fluoropyridin-2-yl)-8-methoxy-N-((2-(trifluoromethyl)pyrimidin-5-yl)methyl)quinazolin-4-amine]
4 | > 6.50 | > 6.50 | 5.50 to 6.50 | COc1cc(-c2ncc(C)s2)cc2c(NCc3nc(C(F)(F)F)no3)ncnc12 [Example 112, 8-methoxy-6-(5-methylthiazol-2-yl)-N-[[3-(trifluoromethyl)-1,2,4-oxadiazol-5-yl]methyl]quinazolin-4-amine]
